Results: paper PMC9863266, “Preclinical Studies and Drug Combination of Low-Cost Molecules for Chagas Disease” (Pharmaceuticals, 2022)

Experiments:
[1] = biological target: triosephosphate isomerase recombinant enzyme of T. cruzi (TcTIM); conditions: cited from earlier work
[2] = test system: epimastigote form of T. cruzi, Tulahuen 2 strain; experiment: Mechanism of death by flow cytometry, AV/IP labeling; format: cell-based; conditions: 20 × IC50
Protocol: Parasites were immediately analyzed on an Accuri C6 flow cytometer (BD Bioscience, Franklin Lakes, New Jersey, U.S.). […] Ten thousand events were analyzed for each of the two independent experiments. Data were analyzed using BD CSampler software (BD Bioscience). Untreated parasites were used as a control. For the positive control of apoptosis and necrosis, the parasites were treated with hydrogen peroxide (H2O2) 50 µM and 100 µM for 2.5 h, respectively. These single-spot controls were used to calculate color compensation for flow cytometry.

[3] = Stability with microsomal and cytosolic fractions of rat hepatocytes; format: in vitro ADME
Protocol: The qualitative analysis of the in vitro metabolization by the rat hepatocyte microsomal (MF) and cytosolic (CF) fractions of compounds 793, 1019, and 1018 was performed using chromatographic techniques (reverse phase high performance liquid chromatography and thin-layer chromatography). For this, the metabolization was monitored at different times (0, 30, 60 min and 4 h). In both MF and CF of hepatocytes treated with compounds 793 and 1019, it was observed that after one hour, more than 50% (t1/2 < 60 min) of the compounds were metabolized to more hydrophilic compounds. For these compounds, it was observed the appearance of new products of metabolization over time. […] Regarding the structure and metabolism, the heterocycles (thienyl vs. furyl) could be responsible for these different stabilities: the furyl ring would metabolize to an open cycle version, making this system more labile in front of the hepatic metabolization.
For the determination of the stability in the different fractions, cytosolic and microsomal, rat hepatocytes protein fractions were purchased by Sigma® and used according to the previously reported protocol. […] The final concentration of the molecules in the aqueous medium was […] and prepared from stock in DMSO of 40 mM. The solutions were homogenized and incubated at 37 °C for 10 min, 30 min, 1 h, 2 h, 3 h, and 4 h (by TLC). Incubation at 37 °C was performed in a reaction volume of 1 mL containing 2.5 µL of 30 mM magnesium chloride (MgCl2); 2.5 µL of 40 mM nicotinamide […] dinucleotide phosphate (NADP^+); 5 µL of 350 mM glucose 6-phosphate (Glu6P); 5 µL of glucose 6-phosphate dehydrogenase (Glu6PD) 50 U/mL, 5 µL of the stock of 40 mM compounds and the volume of the phosphate buffer (pH = 7) was defined so that cytosolic (CF) and microsomal (MF) fraction present a final protein concentration of 0.1 mg/mL. After that, the stability of compounds 793, 1018, and 1019 in the CF and MF of rat hepatocytes was evaluated by HPLC at different times: 0, 30, and 60 min. […]

[4] = test system: CL Brener clone of T. cruzi; parameters: method as in PMID 26492824; conditions: 192 µmoles/kg/day; cited from earlier work
[5] = test system: T. brucei; parameters: method as in earlier work; conditions: read-out: In vitro anti-T. brucei activity (IC50); cited from earlier work
[6] = test system: Salmonella typhimurium strains TA98, T100, T102, TA1535, and TA1537; experiment: Ames test (mutagenicity); format: cell-based; conditions: for Ames test TA98 revertant colonies / Ames test TA100 revertant colonies / Ames test TA102 revertant colonies / Ames test TA1535 revertant colonies / Ames test TA1537 revertant colonies: absence of metabolic activation
Protocol: The mutagenic capacity of the compounds was determined from a 2 × 10^9 CFU/mL culture in Oxoid No. 2 medium in the exponential phase of Salmonella typhimurium strains TA98, T100, T102, TA1535, and TA1537 (hisD3052, histidine-dependent). Five serial dilutions to the third in DMSO were evaluated, starting from the maximum non-toxic dose estimated from the results of the toxicity test carried out initially. Positive controls were performed with 4-nitro-o-phenylenediamine (20 µg/plate) in the case of mutagenicity without activation. DMSO (50 µL/plate) and phenotype control (resistance to ampicillin, tetracycline, crystal violet, and sensitive UV light) were used as negative control. Compounds were incubated for 1 h at 37 °C in 2 mL of an agar solution containing 200 µL of histidine solution [(0.5 mM)/biotin (0.5 mM)]. It was then grown on glucose minimal agar for 48 h at 37 °C. When the effect of the metabolization on the compounds was studied, the S9 fraction (Gibco™, Thermo Fisher Scientific, Grand Island, NY, US) […] and expressed as the mean of duplicates ± standard deviation. The product was considered mutagenic when the number of revertant colonies doubled that of the negative control in at least two consecutive doses. The preparation of the bacterial suspension, the dissolution of the S9 fraction, the product, and the first part of the test (until the tubes with all the solutions were transferred to the stove for incubation) was carried out under sterile conditions, in a laboratory laminar flow and with sterile material (autoclave at 121 °C for 20 min or maintaining the manufacturer’s sterility). The addition of the histidine/biotin solution and the seeding of the plates were carried out under an upward air current generated by a burner.

Structure (SMILES): O=C(/C=C/C=C/c1ccco1)/C=C/C=C/c1ccco1 [Compound 793]
- IC50 [1]: 3 µM
- AV/IP labeling Q1-UR (double AV+/IP+ labeling) ([2]; 6 h): 74%
- AV/IP labeling Q1-UR (double AV+/IP+ labeling) ([2]; 24 h): 84%
- In vitro metabolic stability (qualitative) ([3]; MF and CF of rat hepatocytes, up to 4 h): short half-life
- Compound metabolized to more hydrophilic compounds ([3]; after one hour, both MF and CF): more than 50%
- half-life at 400 µM ([3]; pH 7, both MF and CF of rat hepatocytes): < 1 h
- Days Post-Infection of the First Parasitemia Peak [4]: 22 days
- Reduction in the Parasitemia Peak (%) [4]: 50%
- Survival (%) [4]: 83%
- IC50 [5]: 17 µM
- Ames test (mutagenicity) [6]: NO
- Ames test TA98 revertant colonies ([6]; 6 μg/plate): 5±2
- Ames test TA100 revertant colonies ([6]; 6 μg/plate): 89±3
- Ames test TA102 revertant colonies ([6]; 6 μg/plate): 171±1
- Ames test TA1535 revertant colonies ([6]; 6 μg/plate): 8±1
- Ames test TA1537 revertant colonies ([6]; 6 μg/plate): 16 ± 1
- Ames test TA98 revertant colonies ([6]; 18 μg/plate): 9±3
- Ames test TA100 revertant colonies ([6]; 18 μg/plate): 76±5
- Ames test TA102 revertant colonies ([6]; 18 μg/plate): 176±1
- Ames test TA1535 revertant colonies ([6]; 18 μg/plate): 12±1
- Ames test TA1537 revertant colonies ([6]; 18 μg/plate): 18±1
- Ames test TA98 revertant colonies ([6]; 55 μg/plate): 3±1
- Ames test TA100 revertant colonies ([6]; 55 μg/plate): 74±6
- Ames test TA102 revertant colonies ([6]; 55 μg/plate): 194±3
- Ames test TA1535 revertant colonies ([6]; 55 μg/plate): 14± 3
- Ames test TA1537 revertant colonies ([6]; 55 μg/plate): 24± 4
- Ames test TA98 revertant colonies ([6]; 166 μg/plate): 3 ± 1
- Ames test TA100 revertant colonies ([6]; 166 μg/plate): 58±3
- Ames test TA102 revertant colonies ([6]; 166 μg/plate): 203±2
- Ames test TA1535 revertant colonies ([6]; 166 μg/plate): 18±1
- Ames test TA1537 revertant colonies ([6]; 166 μg/plate): 28± 3
- Ames test TA98 revertant colonies ([6]; 500 μg/plate): 5±1
- Ames test TA100 revertant colonies ([6]; 500 μg/plate): 69±1
- Ames test TA102 revertant colonies ([6]; 500 μg/plate): 222±6
- Ames test TA1535 revertant colonies ([6]; 500 μg/plate): 20±1
- Ames test TA1537 revertant colonies ([6]; 500 μg/plate): 30 ± 3
